Starred links: 1 amine or outer side, 2 acyl side, 3 side chain; linkers in the order of their positions; H or OH if unused. Positions of bridges follow the written chain, without caps; N, C: chain ends. Non-standard residues stand in square brackets, D forms with d. Residues, ends and D or L forms follow the SMILES beside them. Cha = N[C@@H](CC1CCCCC1)C(=O)O; Chg = N[C@H](C(=O)O)C1CCCCC1; Suc = O=C(CCC(=O)[*:2])[*:1]; hLeu = CC(C)CC[C@H](N)C(=O)O; Nle = CCCC[C@H](N)C(=O)O; NcPrGly = O=C(O)CNC1CC1; Dap = NC[C@H](N)C(=O)O; Sar = CNCC(=O)O
How the values were obtained:
Format in all cases: cell-based
[1] = target: T1, human Oxytocin (OTR) receptor (Homo sapiens, UniProt P30559); test: Calcium flux assay (FLIPR), agonist mode, CHO cells expressing human oxytocin receptor; conditions: for EC50: CHO cells, human OTR, calcium flux FLIPR, read-out: hOT EC50; for Emax: CHO, read-out: hOT efficacy (%); for Emax / hOT efficacy (%): maximum response normalized to endogenous full agonist = 100%
T1 construct: expressed in transfected cells
T1 sequence (P30559 1-389): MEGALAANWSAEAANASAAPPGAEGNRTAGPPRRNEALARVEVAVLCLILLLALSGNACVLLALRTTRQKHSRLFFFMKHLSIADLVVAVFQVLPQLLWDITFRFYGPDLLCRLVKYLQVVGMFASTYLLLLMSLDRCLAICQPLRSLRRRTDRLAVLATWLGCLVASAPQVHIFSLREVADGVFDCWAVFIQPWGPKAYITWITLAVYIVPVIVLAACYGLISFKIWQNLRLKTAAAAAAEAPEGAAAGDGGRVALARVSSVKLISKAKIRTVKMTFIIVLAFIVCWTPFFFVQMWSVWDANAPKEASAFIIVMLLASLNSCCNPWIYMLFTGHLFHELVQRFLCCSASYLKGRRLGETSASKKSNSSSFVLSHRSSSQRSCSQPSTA
Description: (§1) Chines Hamster Ovary (CHO) cells were transfected with expression plasmids encoding either the human V1a, the human Oxytocin (OTR) or the human V2 receptor, the later in combination with the chimeric Gqs5 G protein to redirect the signal to Calcium flux. Stable cells were cloned by limiting dilution to yield monoclonal cell lines expressing either human V1a, human V2+Gqs5 or human OTR receptors and selected based on functional responses detected on a fluorometric imaging plate reader (FLIPR) detecting Calcium flux in the cell after receptor activation. The stable cell lines were grown in F-12 K Nutrient Mixture (Kaighns Modification), containing 10% foetal bovine serum (FBS), 1% penicillin-streptomycin, 1% L-[…], 200 ug/ml Geneticin at 37° C. in a 10% CO2 incubator at 95% humidity.
(§2) On the afternoon before the assay, cells were plated at a density of 50,000 cells/well into black 96 well plates with clear bottoms to allow cell inspection and fluorescence measurements from the bottom of each well. The density of cells was sufficient to yield a confluent monolayer the next day. Hanks balanced salt solution, without phenol red, containing 20 mM HEPES (pH 7.3) and 2.5 mM probenecid (assay buffer) was prepared fresh for each experiment. Compound dilutions were made using a Beckman Biomek 2000 laboratory automation workstation, in assay buffer containing 1% DMSO. The dye-loading buffer consisted of a final concentration of 2 μM Fluo-4-AM (dissolved in DMSO and pluronic acid) in assay buffer. The existing culture media was removed from the wells and 100 μl of the dye-loading buffer was added to each well and incubated for approximately 60 min at 37° C. in a 5% CO2 incubator at 95% humidity. Once dye-loaded, the cells were washed thoroughly on an Embla cell washer with the assay buffer to remove any unincorporated dye. Exactly 100 μl assay buffer was left in each well.
(§3) Each 96 well plate containing dye-loaded cells was placed into the FLIPR machine and the laser intensity set to a suitable level to detect low basal fluorescence. To test compounds as agonists, 25 μl diluted compound was added to the plate 10 seconds into the fluorescent measurements and fluorescent response was recorded for 5 minutes. The fluorescence data was normalized to the endogenous full agonist dose-response set at 100% for the maximum response and 0% for the minimum. Each agonist concentration-response curve was constructed using a four parameter logistic equation with Microsoft Excel XLFit as follows: Y=Minimum+((Maximum−Minimum)/(1+10^(LogEC50-X)nH)), where y is the % normalized fluorescence, minimum is the minimum y, maximum is the maximum y, logEC50 is the log10 concentration which produces 50% of the maximum induced fluorescence, x is the log10 of the concentration of the agonist compound and H is the slope of the curve (the Hill Coefficient). The maximum value gives the efficacy of the agonist test compound in percentage. The concentration of agonist that produced a half-maximal response is represented by the EC50 value, the logarithm of which yielded the pEC50 value.

[2] = target: T2, human V2 receptor (Homo sapiens, UniProt P30518); test: Calcium flux assay (FLIPR), agonist mode, CHO cells expressing human V2 receptor + Gqs5; conditions: for EC50: CHO cells, human V2 + chimeric Gqs5, calcium flux FLIPR, read-out: hV2 EC50; for Emax: CHO, read-out: hV2 efficacy (%); for Emax / hV2 efficacy (%): maximum response normalized to endogenous full agonist = 100%
T2 construct: expressed in transfected cells
Description: as §1, §2, §3

[3] = target: T3, human V1a receptor (Homo sapiens, UniProt P37288); test: Calcium flux assay (FLIPR), agonist mode, CHO cells expressing human V1a receptor; conditions: read-out: hV1a EC50
T3 construct: expressed in transfected cells
Description: as §1, §2, §3

T2 sequence (P30518 whole entry): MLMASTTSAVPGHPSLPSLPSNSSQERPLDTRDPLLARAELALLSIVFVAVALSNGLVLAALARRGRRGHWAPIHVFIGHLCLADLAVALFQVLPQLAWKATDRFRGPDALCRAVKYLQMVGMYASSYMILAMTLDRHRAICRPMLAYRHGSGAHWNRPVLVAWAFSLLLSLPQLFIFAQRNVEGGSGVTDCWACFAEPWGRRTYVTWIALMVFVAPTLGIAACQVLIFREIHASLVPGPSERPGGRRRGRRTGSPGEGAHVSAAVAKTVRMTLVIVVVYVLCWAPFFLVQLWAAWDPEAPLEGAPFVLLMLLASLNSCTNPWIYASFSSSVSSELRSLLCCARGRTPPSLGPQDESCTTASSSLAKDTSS
T3 sequence (P37288 whole entry): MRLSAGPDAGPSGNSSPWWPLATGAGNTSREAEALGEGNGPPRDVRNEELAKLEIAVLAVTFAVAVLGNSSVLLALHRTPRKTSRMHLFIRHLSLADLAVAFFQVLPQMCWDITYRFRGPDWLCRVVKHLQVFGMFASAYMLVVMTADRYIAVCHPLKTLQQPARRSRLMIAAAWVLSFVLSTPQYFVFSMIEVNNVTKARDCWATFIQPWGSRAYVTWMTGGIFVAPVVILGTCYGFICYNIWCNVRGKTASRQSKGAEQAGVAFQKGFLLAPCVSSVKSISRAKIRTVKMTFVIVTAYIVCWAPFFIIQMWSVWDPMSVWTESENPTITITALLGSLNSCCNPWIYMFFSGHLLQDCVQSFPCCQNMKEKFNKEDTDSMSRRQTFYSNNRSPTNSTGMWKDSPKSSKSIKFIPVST

EC50 [1] | Emax [1] | EC50 [2] | Emax [2] | EC50 [3] | hV2 efficacy (%) [2] | hOT efficacy (%) [1] | SMILES
0.0005 µM | 109% | 1.39 µM | 119% | > 27 µM | – | – | CC[C@@H](C)[C@@H](NC(=O)CN(C)C(=O)[C@@H]1CNC(=O)CCC(=O)N[C@@H](Cc2ccc(O)cc2)C(=O)N[C@@H]([C@@H](C)CC)C(=O)N[C@@H](CCC(N)=O)C(=O)N[C@@H](CC(N)=O)C(=O)N1)C(=O)NCC(N)=O [Example 28] (YIQN[Dap][Sar][dI]G-NH2; linker N-5 via Suc)
0.0009 µM | 113% | 0.612 µM | – | > 27 µM | 130% | – | CC[C@H](C)[C@@H]1NC(=O)[C@H](Cc2ccc(O)cc2)NC(=O)CCC(=O)NC[C@@H](C(=O)N(C)CC(=O)N[C@@H](CC(C)C)C(=O)NCC(N)=O)NC(=O)[C@H](CC(N)=O)NC(=O)[C@H](CCC(N)=O)NC1=O [Example 3] (YIQN[Dap][Sar]LG-NH2; linker N-5 via Suc)
0.001 µM | – | 0.364 µM | – | > 27 µM | 104% | 119% | CCCC[C@H](NC(=O)CN(C)C(=O)[C@@H]1CNC(=O)CCC(=O)N[C@@H](Cc2ccc(O)cc2)C(=O)N[C@@H]([C@@H](C)CC)C(=O)N[C@@H](CCC(N)=O)C(=O)N[C@@H](CC(N)=O)C(=O)N1)C(=O)NCC(N)=O [Example 6] (YIQN[Dap][Sar][Nle]G-NH2; linker N-5 via Suc)
0.0008 µM | 109% | 0.176 µM | – | 0.391 µM | 106% | – | CC[C@H](C)[C@@H]1NC(=O)[C@H](Cc2ccc(O)cc2)NC(=O)CCC(=O)NC[C@@H](C(=O)N2CCC[C@H]2C(=O)N[C@@H](CCC(C)C)C(=O)NCC(N)=O)NC(=O)[C@H](CC(N)=O)NC(=O)[C@H](CCC(N)=O)NC1=O [Example 22] (YIQN[Dap]P[hLeu]G-NH2; linker N-5 via Suc)
0.0005 µM | 104% | 0.152 µM | – | > 27 µM | 120% | – | CC[C@H](C)[C@@H]1NC(=O)[C@H](Cc2ccc(O)cc2)NC(=O)CCC(=O)NC[C@@H](C(=O)N(C)CC(=O)N[C@H](C(=O)NCC(N)=O)C2CCCCC2)NC(=O)[C@H](CC(N)=O)NC(=O)[C@H](CCC(N)=O)NC1=O [Example 24] (YIQN[Dap][Sar][Chg]G-NH2; linker N-5 via Suc)
0.00038 µM | 126% | 0.626 µM | – | > 27 µM | 146% | – | CC[C@H](C)[C@@H]1NC(=O)[C@H](Cc2ccc(O)cc2)NC(=O)CCC(=O)NC[C@@H](C(=O)N(CC(=O)N[C@@H](CC(C)C)C(=O)NCC(N)=O)C2CC2)NC(=O)[C@H](CC(N)=O)NC(=O)[C@H](CCC(N)=O)NC1=O [Example 38] (YIQN[Dap][NcPrGly]LG-NH2; linker N-5 via Suc)
0.0006 µM | 109% | 2.07 µM | 113% | > 27 µM | – | – | CC[C@H](C)[C@@H]1NC(=O)[C@H](Cc2ccc(O)cc2)NC(=O)CCC(=O)NC[C@@H](C(=O)N(C)CC(=O)N[C@@H](C(=O)NCC(N)=O)[C@H](C)O)NC(=O)[C@H](CC(N)=O)NC(=O)[C@H](CCC(N)=O)NC1=O [Example 29] (YIQN[Dap][Sar][dT]G-NH2; linker N-5 via Suc)
0.0007 µM | 111% | 1.13 µM | 123% | > 27 µM | – | – | CC[C@H](C)[C@@H]1NC(=O)[C@H](Cc2ccc(O)cc2)NC(=O)CCC(=O)NC[C@@H](C(=O)N(C)CC(=O)N[C@H](C(=O)NCC(N)=O)C(C)C)NC(=O)[C@H](CC(N)=O)NC(=O)[C@H](CCC(N)=O)NC1=O [Example 5] (YIQN[Dap][Sar]VG-NH2; linker N-5 via Suc)
0.0005 µM | 107% | 0.199 µM | – | > 27 µM | 126% | – | CC[C@H](C)[C@@H]1NC(=O)[C@H](Cc2ccc(O)cc2)NC(=O)CCC(=O)NC[C@@H](C(=O)N(C)CC(=O)N[C@@H](CC2CCCCC2)C(=O)NCC(N)=O)NC(=O)[C@H](CC(N)=O)NC(=O)[C@H](CCC(N)=O)NC1=O [Example 31] (YIQN[Dap][Sar][Cha]G-NH2; linker N-5 via Suc)
0.001 µM | – | 0.216 µM | – | 5.12 µM | 130% | 105% | CC[C@H](C)[C@@H]1NC(=O)[C@H](Cc2ccc(O)cc2)NC(=O)CCC(=O)NC[C@@H](C(=O)N2CCC[C@H]2C(=O)N[C@@H](CC(C)C)C(=O)NCC(N)=O)NC(=O)[C@H](CC(N)=O)NC(=O)[C@H](CCC(N)=O)NC1=O [Example 1] (YIQN[Dap]PLG-NH2; linker N-5 via Suc (inferred); C-terminus assumed)

Reference: patent US9957298B2, “Peptides as oxytocin agonists” (Hoffmann-La Roche Inc., priority 2014, dated 2018)
